In paper PMC10301393 (Viruses, 2023):
Values after ≈ are worked out from the molar mass of the structure shown.

Legend:
[1] = tested on: SARS-CoV 3CL protease (3CLpro); conditions: cited from earlier work
SARS-CoV = conditions: Vero E6 cells; cited from earlier work
[2] = tested on: human coronavirus 229E (HCoV 229E); test: Anti-HCoV 229E assay: reduction in viral titer; assay type: cell-based, human coronavirus 229E in MRC-5 human lung fibroblast; conditions: MRC-5 cells, compound at 3 μg/mL, 72 h, Figure 3 (n = 1)
MRC-5 cells = test: Cell morphology in photonic microscope observation; assay type: cell-based, human; conditions: antiviral assay
[3] = tested on: human coronavirus 229E (HCoV 229E); test: Anti-HCoV 229E assay: reduction in virus-induced cytopathogenic effect; assay type: cell-based, human coronavirus 229E in MRC-5 human lung fibroblast; conditions: MRC-5 cells, compound at 3 μg/mL (16: 6.7 μM), MOIs 0.01–0.001, 72 h, Figure 4 (n = 3)
SARS-CoV-2 = tested on: SARS-CoV-2; design: method as in earlier work; conditions: cited from earlier work

SMILES: CC(C)c1cc2c(cc1O)[C@@]1(C)CCCC(C)(C)[C@@H]1CC2 [Compound 1, (+)-ferruginol]
- inhibition for SARS-CoV 3CL protease ([1]; below 100 μM): did not show inhibition
- IC50 [1]: 49.6 µM
- EC50 (SARS-CoV): 1.39 µM

SMILES: CC(C)c1cc2c(cc1O)[C@@]1(C)CCC[C@@](C)(CO)[C@@H]1CC2 [Compound 12]
- reduction in the viral titer [2]: ~0.5 log

SMILES: CC(C)c1cc2c(cc1O)[C@@]1(C)CCC[C@@](C)(CN3C(=O)c4cccc(F)c4C3=O)[C@@H]1CC2 [Compound 15, 12-Hydroxy-N,N-(3-fluorophthaloyl)dehydroabietylamine]
- modification of the cell morphology (MRC-5 cells): induced modification of the cell morphology

SMILES: CC(C)c1cc2c(cc1O)[C@@]1(C)CCC[C@@](C)(CN)[C@@H]1CC2 [Compound 14, 12-hydroxydehydroabietylamine]
- reduction in the viral-induced cytopathogenic effect (CPE) [3]: reduce the cytopathogenic effect

SMILES: Cc1coc2c1C(=O)C(=O)c1c-2ccc2c1CCCC2(C)C [tanshinone IIA]
- IC50 (anti-SARS-CoV-2 activity) (SARS-CoV-2): 4.08 mg/L (≈ 13.9 µM)

SMILES: C=C(CO)c1ccc2c(c1)CC[C@H]1[C@@](C)(C(=O)O)CCC[C@]21C [Compound 7, jiadifenoic acid C, reference compound]
- reduction in the viral-induced cytopathogenic effect (CPE) [3]: no activity

SMILES: CC(C)c1cc2c(cc1O)[C@@]1(C)CCC[C@@](C)(CN3C(=O)c4ccccc4C3=O)[C@@H]1CC2 [Compound 3, 18-(phthalimid-2-yl) ferruginol]
- reduction in the viral titer [2]: important reductions in the viral titer
- modification of the cell morphology (MRC-5 cells): induced modification of the cell morphology

SMILES: CC(C)c1cc2c(cc1O)[C@@]1(C)CCC[C@@](C)(CN3C(=O)c4ccc(F)cc4C3=O)[C@@H]1CC2 [Compound 16, 12-Hydroxy-N,N-(4-fluorophthaloyl)dehydroabietylamine]
- reduction in the viral titer [2]: approximately 2 log

SMILES: CC(=O)Oc1cc2c(cc1C(C)C)C=C[C@H]1C(C)(C)[C@@H](OC(C)=O)CC[C@]21C [Compound 2, 3β,12-diacetoxyabieta-6,8,11,13-tetraene, reference compound]
- EC50 (SARS-CoV): 1.57 µM
